Assay results: patent US11718589B2, “Compositions and methods of modulating short-chain dehydrogenase” (CASE WESTERN RESERVE UNIVERSITY, priority 2017, dated 2023)
Where two headings read alike, the source gives them in different places.

Molecular target: recombinant 15-PGDH (Homo sapiens (Human), UniProt P15428)
Assay: Enzyme inhibition of recombinant 15-PGDH, in vitro assay
Format: biochemical
[1] = recombinant human 15-PGDH, read-out: Enzyme inhibition (IC50)

recombinant 15-PGDH, sequence (P15428 whole entry): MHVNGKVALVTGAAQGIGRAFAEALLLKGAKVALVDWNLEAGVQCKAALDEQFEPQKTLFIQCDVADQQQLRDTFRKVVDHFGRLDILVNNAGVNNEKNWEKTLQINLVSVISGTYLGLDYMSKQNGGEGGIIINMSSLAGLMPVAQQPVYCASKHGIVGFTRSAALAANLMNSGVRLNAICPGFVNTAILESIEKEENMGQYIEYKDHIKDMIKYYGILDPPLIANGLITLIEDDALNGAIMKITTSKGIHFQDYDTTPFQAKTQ

SMILES | IC50 [1] [µM] | IC50 [µM]
COc1ccc(-c2cc(OC)n3nc(C(=O)N4CCCCC4)cc3n2)cc1 [33a] | 0.02 to 0.1 | 
O=C(NCc1ccccc1)c1ccc2nc(-c3ccccc3)c(-c3ccccc3)nc2c1 [15b] | > 2.5 | 
O=C(NCCO)c1ccc2nc(-c3ccccc3)c(-c3ccccc3)nc2c1 [17b] | > 2.5 | 
COc1ccc(-c2cc(C(F)(F)F)n3nc(C(=O)N4CCC(=O)CC4)cc3n2)cc1 [13a] |  | 0.5 to 2.5
CCOc1ccc(-c2cc(C(F)(F)F)n3nc(C(=O)N4CCCCC4)cc3n2)cc1 [69a] | 0.5 to 2.5 | 
Cn1cc(-c2nc3cc(C(=O)N4CCCCC4)ccc3nc2-c2ccccc2)cn1 [37b] | 0.02 to 0.1 | 
O=C(c1ccc2nc(-c3ccccc3)c(-c3ccc(F)nc3)nc2c1)N1CCCCC1 [35b] | 0.02 to 0.1 | 
CCCCSc1cc2nc(-c3ccc(OC)cc3)cc(C(F)(F)F)n2n1 [2a, 2-(butylthio)-5-(4-methoxyphenyl)-7-(trifluoromethyl)pyrazolo[1,5-a]pyrimidine] | > 2.5 | 
CCCC[S+]([O-])c1cc2nc(-c3ccc(OC)cc3)cc(-c3c(C)nn(C)c3C)n2n1 (stereo not shown) [74a] | 0.02 to 0.1 | 
COc1ccc(-c2cc(-c3ccnc(Cl)c3)n3nc(C(=O)N4CCCCC4)cc3n2)cc1 [25a] | > 0.1 | 
O=C(c1ccc2ncc(-c3ccc4c(=O)[nH]cc(Cl)c4c3)nc2c1)N1CCCCC1 [92b] | < 0.004 | 
COc1ccc(-c2cc(C(F)(F)F)n3nc(C(=O)N4CCCC(=O)C4)cc3n2)cc1 [62a] | 0.5 to 2.5 | 
COc1ccc(-c2cc(C(F)(F)F)n3nc(C(=O)N4CC(C)CC(C)C4)cc3n2)cc1 (stereo not shown) [57a] | 0.1 | 
O=C(c1cc2nc(-c3ccccc3)cc(C(F)(F)F)n2n1)N1CCCCC1 [61a] | > 2.5 | 
O=C(c1cc2nc(-c3cccs3)cc(C(F)(F)F)n2n1)N1CCCCC1 [42a] | > 2.5 | 
COc1ccc(-c2cc(-c3cnn(C)c3)n3nc(C(=O)N4CCCCC4)cc3n2)cc1 [29a] | 0.02 to 0.1 | 
CC(C)(O)Cn1ccc2cc(-c3cnc4ccc(C(=O)N5CCCCC5)cc4n3)ccc2c1=O [89b] | ~0.004 | 
CCCC[S+]([O-])c1nc2nc(-c3ccc(OC)cc3)cc(-c3ccccc3)n2n1 (stereo not shown) [55a] | > 2.5 | 
CCCC[S+]([O-])c1cc2nc(-c3ccc(OC)cc3)cc(-c3cn(C)nc3C)n2n1 (stereo not shown) [73a] | 0.5 | 
O=C(c1cc2nc(-c3ccccc3C(F)(F)F)cc(C(F)(F)F)n2n1)N1CCCCC1 [43a] | > 2.5 | 
COc1ccc(-c2cc(-c3ccc(F)nc3)n3nc(C(=O)N4CCCCC4)cc3n2)cc1 [27a] | > 0.5 | 
O=C(c1cc2nc(-c3ccc(F)cc3)cc(C(F)(F)F)n2n1)N1CCCCC1 [36a] | 0.0307 | 
COc1ccc(-c2cc(C3CC3)n3nc(C(=O)N4CCCCC4)cc3n2)cc1 [67a] | 0.004 to 0.02 | 

SMILES | IC50 [1] [µM] | IC50 [µM]
CCCC[S+]([O-])c1cc2nc(-c3ccc(OC)cc3)cc(-c3cnc(C)n3C)n2n1 (stereo not shown) [70a] | 0.1 to 0.5 | 
Cc1ccc(-c2cc(C(F)(F)F)n3nc(C(=O)N4CCCCC4)cc3n2)cc1 [40a] | 0.395 | 
COc1ccc(-c2cc(C(F)(F)F)n3nc(C(=O)N4CCC(CO)CC4)cc3n2)cc1 [16a] | < 0.1 | 
COc1ccc(-c2cc(C)n3nc(C(=O)N4CCCCC4)cc3n2)cc1 [35a] | 0.1 | 
COc1ccc(-c2cc(C(F)(F)F)n3nc(C(=O)N4CCCCC4C)cc3n2)cc1 (stereo not shown) [20a] | 0.033 | 
COc1ccc(-c2cc(-c3cccn3C)n3nc(C(=O)N4CCCCC4)cc3n2)cc1 [71a] | 0.02 to 0.1 | 
COc1ccc(-c2cc(C(F)(F)F)n3nc(C(=O)N4CCC(OC)CC4)cc3n2)cc1 [21a] | 0.1 to 0.5 | 
COc1ccc(-c2cc(C(F)(F)F)n3nc(C(=O)N4CCCC(CF)C4)cc3n2)cc1 (stereo not shown) [58a] | 0.02 to 0.1 | 
O=C(c1cc2nc(-c3ccc(O)cc3)cc(C(F)(F)F)n2n1)N1CCCCC1 [68a] | > 2.5 | 
CCCC[S+]([O-])c1cc2nc(-c3ccc(OC)cc3)cc(-c3cnn(C)c3)n2n1 (stereo not shown) [53a] | 0.5 to 2.5 | 
COc1ccc(-c2cc(-c3ccccn3)n3nc(C(=O)N4CCCCC4)cc3n2)cc1 [24a] | 0.02 to 0.1 | 
O=C(c1cc2ncc(-c3ccccc3)cn2n1)N1CCCCC1 [41a] | 0.768 | 
COc1ccc(-c2cc(C(F)(F)F)n3nc(C(=O)N4CCCC(C)C4)cc3n2)cc1 (stereo not shown) [19a] | 0.0146 | 
COc1ccc(-c2cc(C(F)(F)F)n3nc(C(=O)N4CCOCC4)cc3n2)cc1 [10a] | 0.1 to 0.5 | 
COc1ccc(-c2cc(C(F)(F)F)n3nc(C(=O)N4CCCC(C)(C)C4)cc3n2)cc1 [63a] | 0.004 to 0.02 | 
CCCC[S+]([O-])c1cc2nc(-c3ccc(OC)cc3)cc(-c3ccnn3C)n2n1 (stereo not shown) [72a] | 0.004 to 0.02 | 
COC(=O)CNC(=O)c1ccc2nc(-c3ccccc3)c(-c3ccccc3)nc2c1 [16b] | > 2.5 | 
Cc1cc(-c2nc3cc(C(=O)N4CCCCC4)ccc3nc2-c2ccccc2)ccn1 [38b] | 0.02 | 
COc1ccc(-c2cc(C(F)(F)F)n3nc(C(=O)N4CCCCCC4)cc3n2)cc1 [11a] | 0.0189 | 
COc1ccc(-c2cc(N3CCCCC3)n3nc(C(=O)N4CCCCC4)cc3n2)cc1 [44a] | 0.5 | 
CCCCS(=O)(=O)c1ccc2nc(-c3ccccc3)c(-c3ccccc3)nc2c1 [4b] | > 2.5 | 
O=C(c1ccc2nc(-c3ccccc3)c(-c3ccccc3)nc2c1)N1CCCCC1CO (stereo not shown) [26b] | 0.1 to 0.5 | 
O=C(c1ccc2ncc(-c3cc(F)cc(F)c3)nc2c1)N1CCCCC1 [47b] | 0.016 | 

SMILES | IC50 [1] [µM] | IC50 [µM]
O=C(c1cc2nc(-c3nccs3)cc(C(F)(F)F)n2n1)N1CCCCC1 [45a] | 0.014 | 
C=CCNC(=O)c1ccc2nc(-c3ccccc3)c(-c3ccccc3)nc2c1 [19b] | > 2.5 | 
COc1ccc(-c2cc(C(F)(F)F)n3nc(C(=O)N4CCCC(C(F)F)C4)cc3n2)cc1 (stereo not shown) [66a] | 0.02 to 0.1 | 
COc1ccc(-c2cc(-c3cccnc3)n3nc(C(=O)N4CCCCC4)cc3n2)cc1 [23a] | ~0.1 | 
COc1ccc(-c2cc(C(F)(F)F)n3nc(C(=O)N4CCCCC4CO)cc3n2)cc1 (stereo not shown) [17a] | < 0.1 | 
CNC(=O)c1[nH]c2ccc(-c3cnc4ccc(C(=O)N5CCCCC5)cc4n3)cc2c1C [94b] | < 0.004 | 
O=C(c1ccc2nc(-c3ccccc3)c(-c3cncnc3)nc2c1)N1CCCCC1 [36b] | 0.02 to 0.1 | 
O=C(c1cc2nc(N3CCCCC3)cc(C(F)(F)F)n2n1)N1CCCCC1 [39a] | 0.66 | 
O=C(c1cc2nc(-c3cncnc3)cc(C(F)(F)F)n2n1)N1CCCCC1 [37a] | > 2.5 | 
CCCC[S+]([O-])c1cc2nc(-c3nccs3)cc(C(F)(F)F)n2n1 (stereo not shown) [48a] | 0.02 to 0.1 | 
CNc1cc(-c2ccc(OC)cc2)nc2cc(C(=O)N3CCCCC3)nn12 [31a] | 0.02 to 0.1 | 
CNC(=O)c1ccc(-c2cnc3ccc(C(=O)N4CCCCC4)cc3n2)cc1 [80b] | 0.004 | 
O=C(c1ccc2nc(-c3ccccc3)c(-c3cccnc3)nc2c1)N1CCCCC1 [33b] | 0.02 | 
CCCC[S+]([O-])c1cc2nc(-c3ccc(OC)cc3)cc(-c3cccn3C)n2n1 (stereo not shown) [54a] | 0.004 to 0.02 | 
COc1ccc(-c2cc(C(F)(F)F)n3nc(C(=O)N4CCCC(F)(F)C4)cc3n2)cc1 [65a] | 0.1 | 
COc1ccc(-c2cc(-c3ccccc3)n3nc(C(=O)N4CCCCC4)cc3n2)cc1 [34a] | > 0.5 | 
Cn1cc(-c2cc(C(F)(F)F)n3nc(C(=O)N4CCCCC4)cc3n2)cn1 [38a] | > 2.5 | 
CCOC(=O)c1[nH]c2ccc(-c3cnc4ccc(C(=O)N5CCCCC5)cc4n3)cc2c1C [91b] | ~0.004 | 
O=C(c1ccc2ncc(-c3cccc(F)c3)nc2c1)N1CCCCC1 [41b] | 0.004 to 0.02 | 
Nc1ccc(-c2cnc3ccc(C(=O)N4CCCCC4)cc3n2)cc1 [63b] | 0.004 to 0.02 | 
CCCC[S+]([O-])c1cc2nc(-c3ccc(OC)cc3)cc(-c3cccnc3)n2n1 (stereo not shown) [51a] | 0.5 to 2.5 | 
COc1ccc(-c2cc(C(F)(F)F)n3nc(C(=O)N4CCC(NC(=O)OC(C)(C)C)CC4)cc3n2)cc1 [14a] | 0.1 to 0.5 | 
O=C(c1cc2nc(-c3ccc(C(F)(F)F)cc3)cc(C(F)(F)F)n2n1)N1CCCCC1 [47a] | > 2.5 | 

SMILES | IC50 [1] [µM] | IC50 [µM]
CCCC[S+]([O-])c1nc2nc(-c3ccc(OC)cc3)cc(C(F)(F)F)n2n1 (stereo not shown) [49a] | > 2.5 | 
CCCC[S+]([O-])c1cc2nc(-c3ccc(OC)cc3)cc(-c3cncnc3)n2n1 (stereo not shown) [52a] | 2.5 | 
CC1CCCN(C(=O)c2cc3nc(-c4ccc(Cl)cc4)cc(C(F)(F)F)n3n2)C1 (stereo not shown) [75a] | 0.02 to 0.1 | 
COc1ccc(-c2cc(C(F)(F)F)n3nc(C(=O)N4CCCC(C(F)(F)F)C4)cc3n2)cc1 (stereo not shown) [64a] | 0.1 to 0.5 | 
Nc1nc2ccc(-c3cnc4ccc(C(=O)N5CCCCC5)cc4n3)cc2s1 [95b] | < 0.004 | 
O=C(O)c1ccc2nc(-c3ccccc3)c(-c3ccccc3)nc2c1 [21b] | > 2.5 | 
COc1ccc(-c2cc(N(C)C)n3nc(C(=O)N4CCCCC4)cc3n2)cc1 [32a] | 0.0334 | 
O=C(c1ccc2nc(-c3ccccc3)[nH]c2c1)N1CCCCC1 [32b] | 0.1 to 0.5 | 
O=C(c1ccc2ncc(-c3ccc(F)cc3)nc2c1)N1CCCCC1 [42b] | 0.004 to 0.02 | 
COc1ccc(-c2cc(-c3ccncc3Cl)n3nc(C(=O)N4CCCCC4)cc3n2)cc1 [26a] | ~0.5 | 
CCCCSc1ccc2nc(-c3ccccc3)c(-c3ccccc3)nc2c1 [2b] | > 2.5 | 
COc1ccc(-c2cc(-c3ccncc3)n3nc(C(=O)N4CCCCC4)cc3n2)cc1 [22a] | ~0.1 | 
CC1CCCCN1C(=O)c1ccc2nc(-c3ccccc3)c(-c3ccccc3)nc2c1 (stereo not shown) [29b] | 0.1 to 0.5 | 
COc1ccc(-c2cc(C(F)(F)F)n3nc(C(=O)N4CCC(F)(F)CC4)cc3n2)cc1 [59a] | 0.1 to 0.5 | 
COc1ccc(-c2cc(C(F)(F)F)n3nc(C(=O)N4CCCC4)cc3n2)cc1 [9a] | > 2.5 | 
CCCC[S+]([O-])c1nc2nc(-c3nccs3)cc(C(F)(F)F)n2n1 (stereo not shown) [50a] | > 2.5 | 
Cn1nccc1-c1nc(-c2ccccc2)nc2cc(C(=O)N3CCCCC3)ccc12 [90b] | ~0.004 | 
COc1ccc(-c2cc(-c3cncnc3)n3nc(C(=O)N4CCCCC4)cc3n2)cc1 [28a] | 0.1 to 0.5 | 
COc1ccc(-c2cc(C(F)(F)F)n3nc(C(=O)N4CCC(C(F)(F)F)CC4)cc3n2)cc1 [60a] | 0.5 to 2.5 | 
O=C(c1cc2nc(-c3ccc(Cl)cc3)cc(C(F)(F)F)n2n1)N1CCCCC1 [56a] | > 2.5 | 
CCN(CC)C(=O)c1cc2nc(-c3ccc(OC)cc3)cc(C(F)(F)F)n2n1 [8a] | 0.1 | 
Cc1c(C(N)=O)[nH]c2ccc(-c3cnc4ccc(C(=O)N5CCCCC5)cc4n3)cc12 [93b] | < 0.004 | 
